Consider 6 compounds from publication PMC6151560, “Antibacterial and Antitubercular Activities of Cinnamylideneacetophenones” (Molecules : A Journal of Synthetic Chemistry and Natural …, 2017).

Data set [1] in a line: Cytotoxicity on lung cells (resazurin), MRC-5. To be noted: human, MRC-5 cells (lung fibroblast cell line, ATCC CCL-171).
For data set [2], the system named is A549 (human lung adenocarcinoma epithelial cell line, ATCC CCL-185). Description: Cytotoxicity on lung cells (resazurin), A549. The following applies: 24 h incubation. Format: cell-based. A general note: Resazurin is reduced to fluorescent resorufin, in cell work by metabolically active cells.
Data set [3] concerns Staphylococcus aureus (ATCC 14458). Nature of the data set: Antibacterial broth microdilution (MIC/MBC), S. aureus. The following applies: for MIC: ATCC14458, 24 h. In general terms: Broth dilution looks for growth in wells or tubes with falling amounts of substance.
For data set [4], the system named is Mycobacterium tuberculosis H37Rv (ATCC 27294). Description: Antitubercular REMA (Resazurin Microtiter Assay). Format: cell-based. To be noted: Mycobacterium tuberculosis, 168 h, read-out: Mt MIC.
Data set [5] concerns Streptococcus mutans (ATCC 25175). Description: Antibacterial broth microdilution (MIC/MBC), S. mutans. The following applies: for MIC: ATCC25175, 24 h; for MBC: ATCC25175, read-out: Sm MBC.
The subject of data set [6] is Pseudomonas aeruginosa (ATCC 15442). Nature of the data set: Antibacterial broth microdilution (MIC), P. aeruginosa. To be noted: for MIC: ATCC15442, 24 h, read-out: Pa MIC.
The test system of data set [7] is Escherichia coli (ATCC 10536). Description: Antibacterial broth microdilution (MIC), E. coli. To be noted: for MIC: ATCC10536, 24 h, read-out: Ec MIC.
Data set [8] has as its system Streptococcus sanguinis (ATCC 10557). Nature of the data set: Antibacterial broth microdilution (MIC/MBC), S. sanguinis. The following applies: for MIC: ATCC10557, 24 h; for MBC: ATCC10557, read-out: Ss MBC.
Data set [9] is described as follows: Partition coefficient log Po/w by HPLC-PDA (OECD method). To be noted: n-octanol/water (from HPLC retention on a C-18 column).
A short description of data set [10]: DPPH radical scavenging ability. To be noted: at 1600, 800, 400, and 200 µM; DPPH 100 μM, 30 min, 25 °C. The text has this: The low selectivity of the cinnamylideneacetophenones 3 and 4 can be correlated with their phenolic nature. Studies report the ability of phenolic compounds to act on widespread radical processes shared by eukaryotic and prokaryotic cells. We hypothesized this behavior may be responsible by simultaneous activity toward bacteria and pulmonary cells. Therefore, we evaluated the radical scavenging ability of 3 and 4 using DPPH (2,2-diphenyl-1-picrylhydrazyl) protocol. […] Altogether, low selectivity of 3 and 4 cannot be strongly related to radical processes. Quercetin and gallic acid were used as positive controls due to their phenolic nature and potent radical scavenging ability.
Radical scavenging activity of compounds 3 and 4 was determined using 2,2-diphenyl-1-picrylhydrazyl (DPPH). Aliquots of 10 µL of 3, 4, and positive controls (quercetin and gallic acid) at concentrations 1600, 800, 400, and 200 μM (in EtOH) were individually added in 190 µL DPPH (100 μM). The mixtures were incubated in the dark at 25 °C for 30 min. Remaining DPPH was determined spectroscopically at 490 nm by blanking against absolute ethanol. Radical scavenging ability was expressed by using mean values obtained from triplicates as the percentage of radicals reduced by calculating the following equation: DPPH scavenging % = [1 − (Asample/A) × 100], where A is test absorbance without sample (only EtOH and DPPH) and Asample is test absorbance with compounds.
In general terms: Loss of DPPH colour is used to gauge radical scavenging.

In data set [11] the test system is MRC-5 (human lung fibroblast cell line, ATCC CCL-171). Description: Cytotoxicity on lung cells (resazurin), MRC-5. To be noted: Homo sapiens, MRC5, read-out: IC50 on pulmonary cells.
The next data set is described as follows: in vitro. The following applies: human.
The next data set relates to M. tuberculosis. Also on record: method as in PMID 26400221. To be noted: cited from earlier work.
The subject of another data set is E. coli. Set-up: method as in PMID 17662960. To be noted: cited from earlier work.
Another data set has as its system S. aureus strains. Set-up: method as in PMID 28066373. The following applies: cited from earlier work.
The mark [12] stands for this setting: ATCC14458, read-out: MIC and MBC values.
[13] abbreviates: broth microdilution, 24 h, tested 3.9 to 500 µM.

Converted amounts (≈) assume the structure as drawn. Like-named read-outs stand apart in the source and are kept apart here.

In general, IC50 refers to the concentration that gives 50% inhibition. `COc1cccc2c1C(=O)c1c(O)c3c(c(O)c1C2=O)C[C@@](O)(C(=O)CO)C[C@@H]3O[C@H]1C[C@H](N)[C@H](O)[C@H](C)O1` [doxorubicin, reference compound] yielded an IC50 at 24 h in [1] of 0.7 µM. Moreover, in data set [2], the IC50 turned out to be 1.8 µM.
For orientation: chromatographic logP means a lipophilicity value derived from retention on a column. Lower therefore signals lower lipophilicity. For orientation: MIC means the lowest concentration found to suppress growth. With `O=C(/C=C/C=C/c1ccccc1)c1ccc(Br)cc1` [Compound 12, (2E,4E)-1-(4-bromophenyl)-5-phenylpenta-2,4-dien-1-one], the chromatographic logP in the data set “physchem” was determined as 3.8. For the same compound, the MIC is over 500 µM in data set [3] (read-out: Sa MIC); over 200 µM in data set [4]; over 500 µM in data set [5] (read-out: Sm MIC); over 500 µM in [6]; over 500 µM in [7]; over 500 µM in [8] (read-out: Ss MIC).
A word on the MBC: it is the smallest concentration meeting the test's criterion for killing. Regarding `O=C(/C=C/C=C/c1ccccc1)c1cccc(O)c1` [Compound 3, (2E,4E)-1-(3-hydroxyphenyl)-5-phenylpenta-2,4-dien-1-one], the MIC in [3] (read-out: Sa MIC, Staphylococcus aureus, broth microdilution, 24 h, tested 3.9 to 500 µM) is 77.9 µM (≈ 19.5 µg/mL); in data set [4] (M. tuberculosis H37Rv, REMA, 7 days, lowest concentration giving 90% inhibition of growth), 88.8 µM (≈ 22.2 µg/mL); in data set [5] (read-out: Sm MIC, Streptococcus mutans, broth microdilution, 24 h, tested 3.9 to 500 µM), 77.9 µM (≈ 19.5 µg/mL); in data set [6], over 500 µM; in data set [7], over 500 µM; in data set [8] (read-out: Ss MIC, Streptococcus sanguinis, broth microdilution, 24 h, tested 3.9 to 500 µM), 77.9 µM (≈ 19.5 µg/mL). For the same compound, the MBC in [3] (setting [12]) is 77.9 to 312 µM (≈ 19.5 to 78.1 µg/mL); in data set [3] (ATCC14458, read-out: Sa MBC), 156 µM (≈ 39 µg/mL); in [5], 156 µM (≈ 39 µg/mL); in [8], 156 µM (≈ 39 µg/mL). Besides, in data set [9], the chromatographic logP was 2.7. Further, the “percentages of DPPH scavenging ability” value in data set [10] is “below 8%”. Moreover, the IC50 is 46.3 to 96.7 µM in data set [11] and 96.7 µM in data set [2]. This compound also showed an IC50 at 24 h in data set [1] of 46.3 µM.
`O=C(/C=C/C=C/c1ccccc1)c1ccc(O)cc1` [Compound 4, (2E,4E)-1-(4-hydroxyphenyl)-5-phenylpenta-2,4-dien-1-one]: the chromatographic logP in the data set “physchem” turned out to be 2.6. The MIC in [3] (read-out: Sa MIC) was 77.9 µM (≈ 19.5 µg/mL); in data set [4] it was 81.9 µM (≈ 20.5 µg/mL); in data set [5] (read-out: Sm MIC) it was 156 µM (≈ 39 µg/mL); in data set [6], over 500 µM; in data set [7], over 500 µM; in data set [8] (read-out: Ss MIC) it was 156 µM (≈ 39 µg/mL). Further, the minimal bactericidal concentration (MBC) in [3] (setting [12]) is 77.9 to 312 µM (≈ 19.5 to 78.1 µg/mL); in data set [3] (ATCC14458, read-out: Sa MBC), 77.9 µM (≈ 19.5 µg/mL); in [5], 312 µM (≈ 78.1 µg/mL); in data set [8], 312 µM (≈ 78.1 µg/mL). Besides, the “percentages of DPPH scavenging ability” value in [10] is given as “below 8%”. Moreover, the values for the IC50 (in data set [11]; in “in vitro”; in data set [2]) were 46.3 to 96.7 µM, 53.1 µM and 77.5 µM, respectively.
With `O=C/C=C/c1ccccc1` [Compound 1, Cinnamaldehyde, reference compound], the “MIC against M. tuberculosis” value with M. tuberculosis is 3.12 µg/mL; in the data set on M. tuberculosis (converted value in brackets), 23 µM. Also, the “MIC against E. coli” value in the data set with E. coli was 1000 µg/mL; in the data set on E. coli (converted value in brackets), 7566 µM. Moreover, the MIC in data set [3] (read-out: Sa MIC) was over 500 µM; in data set [4] it was over 200 µM; in [5] (read-out: Sm MIC), over 500 µM; in data set [6], over 500 µM; in [7], over 500 µM; in data set [8] (read-out: Ss MIC), over 500 µM. The “Sa MIC” value in [3] (setting [13]) is listed as over 500 µM. The “Sm MIC” value in [5] (setting [13]) was over 500 µM. Besides, the “Pa MIC” value in data set [6] (broth microdilution, 24 h) was over 500 µM. The “Ec MIC” value in [7] (broth microdilution, 24 h) was over 500 µM. In addition, in [8] (setting [13]), the “Ss MIC” value is over 500 µM. Also, the “MIC against S. aureus strains” value in the data set on S. aureus strains was 250 µg/mL; with S. aureus strains (converted value in brackets), 1891 µM.
Compound `O=C(/C=C/C=C/c1ccccc1)c1ccc(Cl)cc1` [Compound 11, (2E,4E)-1-(4-chlorophenyl)-5-phenylpenta-2,4-dien-1-one] returned a chromatographic logP in “physchem” of 3.7. Also, the MIC in data set [3] (read-out: Sa MIC) was over 500 µM; in data set [4], over 200 µM; in data set [5] (read-out: Sm MIC) it was over 500 µM; in [6], over 500 µM; in data set [7], over 500 µM; in [8] (read-out: Ss MIC), over 500 µM.
